In ChEMBL document CHEMBL3045017, “Responses of Spodoptera littoralis larvae to Tunisian plant extracts and to neo-clerodane diterpenoids isolated from Ajuga pseudoiva leaves” (2000):

What was measured:
Format in all cases: functional
[1] = test system: Spodoptera littoralis; experiment: Antifeedant activity against final stage larvae of Spodoptera littoralis at 100 mg/l after 8 to 24 hr
[2] = test system: Spodoptera littoralis; experiment: Antifeedant activity against final stage larvae of Spodoptera littoralis at 0.1 mg/l after 8 to 24 hr
[3] = test system: Spodoptera littoralis; experiment: Antifeedant activity against final stage larvae of Spodoptera littoralis at 10 mg/l after 8 to 24 hr
[4] = test system: Spodoptera littoralis; experiment: Antifeedant activity against final stage larvae of Spodoptera littoralis at 1 mg/l after 8 to 24 hr

| SMILES | AFI [1] | AFI [2] | AFI [3] | AFI [4] |
| --- | --- | --- | --- | --- |
| CO[C@@H]1C[C@@H]2C[C@@H]([C@@]3(C)[C@H](C)C[C@H](OC(C)=O)[C@]4(COC(C)=O)[C@@H]3C[C@H](O)[C@H](OC(=O)C(C)C)[C@]43CO3)O[C@@H]2O1 [HATIVENE C] | 100% | 42.7% | 100% | 63.3% |
| CC[C@H](C)C(=O)O[C@H]1[C@H](O)C[C@@H]2[C@@](C)([C@@H]3C[C@H]4CCO[C@H]4O3)[C@H](C)C[C@H](OC(C)=O)[C@@]2(COC(C)=O)[C@@]12CO2 [14,15-DIHYDROAJUGAPITIN] | 100% | 65.9% | 100% | 92.6% |
| CC[C@@H](C)C(=O)O[C@H]1[C@H](O)C[C@@H]2[C@@](C)([C@@H]3C[C@H]4C[C@@H](OC)O[C@H]4O3)[C@H](C)C[C@H](OC(C)=O)[C@@]2(COC(C)=O)[C@@]12CO2 [LUPULIN A] | 100% | 45% | 100% | 74.5% |
| CO[C@H]1C[C@@H]2C[C@@H]([C@@]3(C)[C@H](C)C[C@H](OC(C)=O)[C@]4(COC(C)=O)[C@@H]3C[C@@H](O)[C@H](OC(=O)C(C)C)[C@]43CO3)O[C@@H]2O1 [HATIVENE A] | 100% | 37.3% | 100% | 63.3% |
| CO[C@@H]1C[C@@H]2C[C@@H]([C@@]3(C)[C@H](C)C[C@H](OC(C)=O)[C@]4(COC(C)=O)[C@@H]3C[C@@H](O)[C@H](OC(=O)C(C)C)[C@]43CO3)O[C@@H]2O1 [HATIVENE B] | 100% | 41.2% | 100% | 69% |
